The text below walks through data of patent publication US11612583B2, “Disease modifying methods for treating neurodegenerative diseases using nootropic agents” (priority 2018, dated 2023).

The structures appear in SMILES notation.

Assay type in all cases: cell-based, mouse
Data set [1] concerns primary cortical neurons treated with rotenone. Put plainly: Dendrite length analysis (MAP2B immunostaining). The settings on record: after rotenone 65 nM; Forskolin/NKH477 6.5 μM-8.5 μM or 250 μM dbt-cAMP; FIG. 5.
Data set [2] has the same test system. Nature of the data set: Image-based analysis of mitochondrial content in dendrites (MAP2B/TOM20 immunostaining). The note with it: after rotenone 65 nM; Forskolin/NKH477 6.5 μM-8.5 μM or 250 μM dbt-cAMP; FIG. 4. An excerpt:
The rotenone-treated neurons were also studied by image-based analyses of mitochondrial content in dendrites from primary cortical neurons immunostained for dendrites (MAP2B) and for mitochondria (TOM20).

For data set [3] the test system is unchanged. Put plainly: Extracellular acidification rates (ECARs), proxy for glycolysis, in rotenone-treated primary cortical neurons. The settings on record: after rotenone 65 nM 24 hours, 6.5 μM-8.5 μM, FIG. 3. On the procedure: Rotenone (1.26 mM stock, Sigma, Cat #R8875) was freshly prepared in water prior to each use. Stocks of rotenone were maintained in the dark at −20° C. for up to 6 months. […]
The extracellular acidification rates (ECARs), a proxy for glycolysis, were also assessed by using an XF24^e Extracellular Flux Analyzer in primary neurons.

Data set [4] has the same test system. Put plainly: Oxygen consumption rates (XF24e Extracellular Flux Analyzer) in rotenone-treated primary cortical neurons. The note with it: after rotenone 65 nM 24 hours, 24 hrs. On the procedure: Rotenone (1.26 mM stock, Sigma, Cat #R8875) was freshly prepared in water prior to each use. Stocks of rotenone were maintained in the dark at −20° C. for up to 6 months. Rotenone was used at 65 μM for neuroblastoma cells and at 65 nM for primary cortical neurons for 4-6 hours to induce oxidative and autophagic stress.
Forskolin (Coleus forskohlii, >98% HPLC, Sigma Aldrich) was prepared in DMSO as 5 mg/ml stocks (stable for up to 6 months if kept in the dark and stored in −20° C. until ready to use). On the day of the experiment, the forskolin aliquot was thawed and cells were treated once with forskolin at a concentration of 1 to up to 10 μM of forskolin in complete media for treating primary cortical neurons or for intraperitoneal administration of PINK1 knockout mice or PINK1 knockout rats.
Rotenone-treated primary neurons were then exposed to 250 μM dibutyryl cyclic AMP (dbt-cAMP) or with the parental or water-soluble form (NKH477) of Forskolin (6.5 μM-8.5 μM, 24 hrs). The basal oxygen consumption rates (OCRs), a proxy for mitochondrial function, were analyzed by using an XF24^e Extracellular Flux Analyzer (Agilent Technologies). The maximal oxygen consumption rates (OCRs), a proxy for maximal buffering capacity of mitochondrial function, were also analyzed by using an XF24^e Extracellular Flux Analyzer in primary cortical neurons treated with 1 μM FCCP, an ionophore that acts as a mitochondrial uncoupler.

The subject of a further data set is primary cortical neurons. Nature of the data set: Rotenone toxicity in primary cortical neurons. The settings on record: 24 hours.

`C=C[C@@]1(C)CC(=O)[C@]2(O)[C@@]3(C)[C@@H](O)CCC(C)(C)[C@@H]3[C@H](OC(=O)CCN(C)C)[C@H](OC(C)=O)[C@@]2(C)O1.Cl` [NKH477]: the “dendrite arbors (total dendrite length per neuron)” value in data set [1] is reported as “completely blocked”. For the same molecule, the “mitochondrial content in dendrites (% of dendrites occupied by mitochondria)” value in data set [2] is recorded as “completely blocked”. In data set [3], the “glycolysis (baseline ECARs)” value was “completely restored normal glycolytic function”. Further, the “spare respiratory capacity (Maximal OCRs-Baseline OCRs)” value in data set [4] (6.5 μM-8.5 μM, 1 μM FCCP, FIG. 2) is reported as “completely restored”. Moreover, in data set [4] (Forskolin or NKH477 6.5 μM-8.5 μM, FIG. 1), the “baseline mitochondrial respiration (basal OCRs)” value is “partially or completely restored”.

`CCCC(=O)Nc1ncnc2c1ncn2[C@@H]1O[C@@H]2COP(=O)(O)O[C@H]2[C@H]1OC(=O)CCC` [dbt-cAMP, dibutyryl cyclic AMP]: the “dendrite arbors (total dendrite length per neuron)” value in data set [1] is “reversed the loss of dendrites”. The “mitochondrial content in dendrites (% of dendrites occupied by mitochondria)” value in data set [2] was “reversed the loss of mitochondria within dendrites”.

In the data set with primary cortical neurons, `C=C(C)[C@H]1Cc2c(ccc3c2O[C@@H]2COc4cc(OC)c(OC)cc4[C@@H]2C3=O)O1` [rotenone, Rotenone] showed an LD50 concentration of 65 nM.
